This note sets out measurements from patent US20140221361A1, “C-19 MODIFIED TRITERPENOIDS WITH HIV MATURATION INHIBITORY ACTIVITY” (priority 2013, published 2014).

Structures are written as SMILES. pEC50: −log10 of the molar value.

In the first assay the test system is recombinant NL4-3 virus (Renilla luciferase in nef, Gag P373S). Description: HIV cell culture assay (luciferase reporter, MT-2 cells). In kind it is cell-based, HIV-1. The following applies: MT-2 cells infected for 4-5 days with NLRluc recombinants; luciferase activity; serial dilutions of inhibitor. The method, boiled down:
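MT-2 cells infected with recombinant NL4-3 carrying Renilla luciferase in place of part of nef and Gag P373S, virus made by 293T transfection. Infection ran 4-5 days with serial inhibitor dilutions. Antiviral activity read as luciferase activity (Dual Luciferase reagents mixed with lysis buffer).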
A general note: Reporter assays use an easily measured gene product as a stand-in for the process of interest.
As a reminder, the pEC50 is the negative decadic logarithm of the EC50, by convention in mol/L. For the compound `CC(O)[C@@H]1CC[C@]2(NCCN3CCS(=O)(=O)CC3)CC[C@]3(C)[C@H](CC[C@@H]4[C@@]5(C)CC=C(c6ccc(C(=O)O)cc6)C(C)(C)[C@@H]5CC[C@]43C)[C@@H]12` (single isomer, unassigned) [Example B12], the pEC50 is 8.40.
The same measure, in the same setting: next, `CC(O)(CO)[C@@H]1CC[C@]2(NCCN3CCS(=O)(=O)CC3)CC[C@]3(C)[C@H](CC[C@@H]4[C@@]5(C)CC=C(c6ccc(C(=O)O)cc6)C(C)(C)[C@@H]5CC[C@]43C)[C@@H]12` (single isomer, unassigned) [Example B9]: 8.67.
As for `CC(O)(CO)[C@@H]1CC[C@]2(NCCN3CCS(=O)(=O)CC3)CC[C@]3(C)[C@H](CC[C@@H]4[C@@]5(C)CC=C(c6ccc(C(=O)O)cc6)C(C)(C)[C@@H]5CC[C@]43C)[C@@H]12` (single isomer, unassigned) [Example B10], the pEC50 is 8.18.

Still in this assay, the particulars now being: Renilla, NL43, MT-2 cells infected for 4-5 days with NLRluc recombinants; luciferase activity; serial dilutions of inhibitor.
Turning to `C=C(CN(C)C(=O)CCC(=O)OC)[C@@H]1CC[C@]2(C(=O)NCCN(C)C)CC[C@]3(C)[C@H](CC[C@@H]4[C@@]5(C)CC=C(c6ccc(C(=O)O)cc6)C(C)(C)[C@@H]5CC[C@]43C)[C@@H]12` [Example 18, 4-((1R,3aS,5aR,5bR,7aR,11aS,11bR,13aR,13bS)-3a-(2-(dimethylamino)ethylcarbamoyl)-1-(3-(4-methoxy-N-methyl-4-oxobutanamido)prop-1-en-2-yl)-5a,5b,8,8,11a-pentamethyl-2,3,3a,4,5,5a,5b,6,7,7a,8,11,11a,11b,12,13,13a,13b-octadecahydro-1H-cyclopenta[a]chrysen-9-yl)benzoic acid], the pEC50 was 8.73.
Still for that read-out and setting: as for `CNC(=O)[C@@H]1CC[C@]2(NCCN3CCS(=O)(=O)CC3)CC[C@]3(C)[C@H](CC[C@@H]4[C@@]5(C)CC=C(c6ccc(C(=O)O)cc6)C(C)(C)[C@@H]5CC[C@]43C)[C@@H]12` [Example B28, 4-((1R,3aS,5aR,5bR,7aR,11aS,11bR,13aR,13bS)-3a-((2-(1,1-dioxidothiomorpholino)ethyl)amino)-5a,5b,8,8,11a-pentamethyl-1-(methylcarbamoyl)-2,3,3a,4,5,5a,5b,6,7,7a,8,11,11a,11b,12,13,13a,13b-octadecahydro-1H-cyclopenta[a]chrysen-9-yl)benzoic acid], the figure is 6.96.
Same read-out and setting: next, `CC(=O)[C@@H]1CC[C@]2(NCCN3CCS(=O)(=O)CC3)CC[C@]3(C)[C@H](CC[C@@H]4[C@@]5(C)CC=C(c6ccc(C(=O)O)cc6)C(C)(C)[C@@H]5CC[C@]43C)[C@@H]12` [Example B47, 4-((1R,3aS,5aR,5bR,7aR,11aS,11bR,13aR,13bS)-1-acetyl-3a-((2-(1,1-dioxidothiomorpholino)ethyl)amino)-5a,5b,8,8,11a-pentamethyl-2,3,3a,4,5,5a,5b,6,7,7a,8,11,11a,11b,12,13,13a,13b-octadecahydro-1H-cyclopenta[a]chrysen-9-yl)benzoic acid]: 8.00.
Still for that read-out and setting: as for `COC(=O)NC(C)[C@@H]1CC[C@]2(NCCN3CCS(=O)(=O)CC3)CC[C@]3(C)[C@H](CC[C@@H]4[C@@]5(C)CC=C(c6ccc(C(=O)O)cc6)C(C)(C)[C@@H]5CC[C@]43C)[C@@H]12` (stereo partly drawn) [Example B22, 4-((1R,3aS,5aR,5bR,7aR,11aS,11bR,13aR,13bS)-3a-((2-(1,1-dioxidothiomorpholino)ethyl)amino)-1-(1-((methoxycarbonyl)amino)ethyl)-5a,5b,8,8,11a-pentamethyl-2,3,3a,4,5,5a,5b,6,7,7a,8,11,11a,11b,12,13,13a,13b-octadecahydro-1H-cyclopenta[a]chrysen-9-yl)benzoic acid], the figure is 8.99; as for `CC(CF)[C@@H]1CC[C@]2(NCCN3CCS(=O)(=O)CC3)CC[C@]3(C)[C@H](CC[C@@H]4[C@@]5(C)CC=C(c6ccc(C(=O)O)cc6)C(C)(C)[C@@H]5CC[C@]43C)[C@@H]12` (single isomer, unassigned) [Example B8], 8.60.
With `CC(CN1CCS(=O)(=O)CC1)[C@@H]1CC[C@]2(NCCN3CCS(=O)(=O)CC3)CC[C@]3(C)[C@H](CC[C@@H]4[C@@]5(C)CC=C(c6ccc(C(=O)O)cc6)C(C)(C)[C@@H]5CC[C@]43C)[C@@H]12` (single isomer, unassigned) [Example B18], the pEC50 was 8.80.
In the case of `COCC(C)(O)[C@@H]1CC[C@]2(NCCN3CCS(=O)(=O)CC3)CC[C@]3(C)[C@H](CC[C@@H]4[C@@]5(C)CC=C(c6ccc(C(=O)O)cc6)C(C)(C)[C@@H]5CC[C@]43C)[C@@H]12` (single isomer, unassigned) [Example B1], the pEC50 is 8.92.
Still for that read-out and setting: next, `CC(=O)N[C@@H]1CC[C@]2(NCCN3CCS(=O)(=O)CC3)CC[C@]3(C)[C@H](CC[C@@H]4[C@@]5(C)CC=C(c6ccc(C(=O)O)cc6)C(C)(C)[C@@H]5CC[C@]43C)[C@@H]12` [Example B36, 4-((1R,3aR,5aR,5bR,7aR,11aS,11bR,13aR,13bS)-1-acetamido-3a-((2-(1,1-dioxidothiomorpholino)ethyl)amino)-5a,5b,8,8,11a-pentamethyl-2,3,3a,4,5,5a,5b,6,7,7a,8,11,11a,11b,12,13,13a,13b-octadecahydro-1H-cyclopenta[a]chrysen-9-yl)benzoic acid]: 8.20; `CC(C)(O)[C@@H]1CC[C@]2(NCCN3CCS(=O)(=O)CC3)CC[C@]3(C)[C@H](CC[C@@H]4[C@@]5(C)CC=C(c6ccc(C(=O)O)cc6)C(C)(C)[C@@H]5CC[C@]43C)[C@@H]12` [Example B3, 4-((1R,3aS,5aR,5bR,7aR,11aS,11bR,13aR,13bS)-3a-((2-(1,1-dioxidothiomorpholino)ethyl)amino)-1-(2-hydroxypropan-2-yl)-5a,5b,8,8,11a-pentamethyl-2,3,3a,4,5,5a,5b,6,7,7a,8,11,11a,11b,12,13,13a,13b-octadecahydro-1H-cyclopenta[a]chrysen-9-yl)benzoic acid]: 8.89.
As to `CC1([C@@H]2CC[C@]3(C(=O)O)CC[C@]4(C)[C@H](CC[C@@H]5[C@@]6(C)CC=C(c7ccc(C(=O)O)cc7)C(C)(C)[C@@H]6CC[C@]54C)[C@@H]23)CC1` [Example B48, (1R,3aS,5aR,5bR,7aR,11aS,11bR,13aR,13bR)-9-(4-carboxyphenyl)-5a,5b,8,8,11a-pentamethyl-1-(1-methylcyclopropyl)-2,3,3a,4,5,5a,5b,6,7,7a,8,11,11a,11b,12,13,13a,13b-octadecahydro-1H-cyclopenta[a]chrysene-3a-carboxylic acid], the pEC50 is 8.00.
`C=C(CN(C)CCN(C)C)[C@@H]1CC[C@]2(C(=O)O)CC[C@]3(C)[C@H](CC[C@@H]4[C@@]5(C)CC=C(c6ccc(C(=O)O)cc6)C(C)(C)[C@@H]5CC[C@]43C)[C@@H]12` [Example 4, (1R,3aS,5aR,5bR,7aR,11aS,11bR,13aR,13bS)-9-(4-carboxyphenyl)-1-(3-((2-(dimethylamino)ethyl)(methyl)amino)prop-1-en-2-yl)-5a,5b,8,8,11a-pentamethyl-2,3,3a,4,5,5a,5b,6,7,7a,8,11,11a,11b,12,13,13a,13b-octadecahydro-1H-cyclopenta[a]chrysene-3a-carboxylic acid]: the pEC50 is 8.85.
Same read-out and setting: as for `C=C(CN(C)C(=O)CCC(=O)O)[C@@H]1CC[C@]2(C(=O)NCCC(=O)O)CC[C@]3(C)[C@H](CC[C@@H]4[C@@]5(C)CC=C(c6ccc(C(=O)O)cc6)C(C)(C)[C@@H]5CC[C@]43C)[C@@H]12` [Example 10, 4-((1R,3aS,5aR,5bR,7aR,11aS,11bR,13aR,13bS)-1-(3-(3-carboxy-N-methylpropanamido)prop-1-en-2-yl)-3a-(2-carboxyethylcarbamoyl)-5a,5b,8,8,11a-pentamethyl-2,3,3a,4,5,5a,5b,6,7,7a,8,11,11a,11b,12,13,13a,13b-octadecahydro-1H-cyclopenta[a]chrysen-9-yl)benzoic acid], the figure is 5.70.
Same read-out and setting: as for `C=C(CN(C)C)[C@@H]1CC[C@]2(C(=O)NCCN(C)C)CC[C@]3(C)[C@H](CC[C@@H]4[C@@]5(C)CC=C(c6ccc(C(=O)O)cc6)C(C)(C)[C@@H]5CC[C@]43C)[C@@H]12` [Example 7, 4-((1R,3aS,5aR,5bR,7aR,11aS,11bR,13aR,13bS)-3a-(2-(dimethylamino)ethylcarbamoyl)-1-(3-(dimethylamino)prop-1-en-2-yl)-5a,5b,8,8,11a-pentamethyl-2,3,3a,4,5,5a,5b,6,7,7a,8,11,11a,11b,12,13,13a,13b-octadecahydro-1H-cyclopenta[a]chrysen-9-yl)benzoic acid], the figure is 9.27.
